Consider 23 compounds from patent publication US20260125375A1 (Pfizer Inc., priority 2022, published 2026).

For test [1], the target named is T1, C-CBL (residues 46-435) (Homo sapiens, UniProt P22681).
T1 construct: Purified CBL-B (residues 36-427) and C-CBL (residues 46-435) proteins from baculovirus-infected insect cells; made in house; host or cells: baculovirus-infected insect cells
T1 sequence (P22681 46-435): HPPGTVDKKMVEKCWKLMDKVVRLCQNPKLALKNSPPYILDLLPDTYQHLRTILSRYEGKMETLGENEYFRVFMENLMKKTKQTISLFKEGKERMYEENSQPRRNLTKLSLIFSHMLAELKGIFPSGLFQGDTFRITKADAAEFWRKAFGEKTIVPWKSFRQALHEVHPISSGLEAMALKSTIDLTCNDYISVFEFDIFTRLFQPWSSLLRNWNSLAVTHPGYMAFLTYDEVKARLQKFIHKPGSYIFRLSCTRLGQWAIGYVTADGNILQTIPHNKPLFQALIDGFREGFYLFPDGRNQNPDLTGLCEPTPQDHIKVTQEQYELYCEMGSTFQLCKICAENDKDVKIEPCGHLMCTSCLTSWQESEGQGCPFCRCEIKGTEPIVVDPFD
As to the kind of experiment: Ligand Displacement Assay (LDA), HTRF competitive binding against BODIPY-labeled fluorescent tracer, C-CBL. As to conditions: geometric mean of the number of tests, read-out: C-CBL Ki (nM) GMean. The method in brief: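 Competition with a BODIPY fluorescent tracer was read by HTRF, each protein carrying an N-terminal biotinylated AviTag bound to Tb-streptavidin. Tracer KD values were set beforehand per protein; Ki derives from duplicate three-fold compound series ([…], 2% DMSO), averaged geometrically across tests.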
(Time-resolved FRET reads energy transfer from a long-lived donor to a nearby acceptor.)

In test [2] the target is T2, WT CBL-B (36-427) (Homo sapiens, UniProt Q13191).
T2 construct: N-terminal biotinylated WT CBL-B (36-427) and C-CBL (46-435) were captured on a streptavidin (SA) coated sensor chip
The test is described as follows: Surface Plasmon Resonance (SPR) assay, binding affinity and kinetics, CBL-B. To be noted: SPR at 10° C., biotinylated WT CBL-B (36-427) on streptavidin chip; geometric mean; read-out: CBL-B SPR Kd (nM) GMean. The essentials:
(§1)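 Biotinylated WT CBL-B (36-427) or C-CBL (46-435) captured on streptavidin chip (~5000–6000 RU); binding at 10° C in HEPES buffer pH 7.2 with 2% DMSO. Multi-cycle: 2-fold, 10-point series from 10 or 100 μM, 90 s association. Single-cycle: 3-fold, 6-point, 0.001–1 μM, 120 s association, >5400 s dissociation.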

For test [3], the target named is T3, C-CBL (46-435) (Homo sapiens, UniProt P22681).
T3 construct: N-terminal biotinylated WT CBL-B (36-427) and C-CBL (46-435) were captured on a streptavidin (SA) coated sensor chip
T3 sequence (P22681 46-435): T1 sequence (P22681 46-435)
As to the kind of experiment: Surface Plasmon Resonance (SPR) assay, binding affinity and kinetics, C-CBL. As to conditions: SPR at 10° C., biotinylated C-CBL (46-435) on streptavidin chip; geometric mean; read-out: C-CBL SPR Kd (nM) GMean. The method in brief: as §1

For `CC(C)NC(C)c1nc(C(F)(F)F)cc2c(-c3cccc([C@H](c4nncn4C)C4CCC4)c3)n[nH]c12` (single isomer, unassigned) [Example C35], the Ki in test [1] was determined as 29.1 nM. Besides, the equilibrium dissociation constant (Kd) in test [2] worked out at 2.8 nM; in test [3], 54 nM.

Consider `C[C@H](NC1CCC1)c1nc(C(F)(F)F)cc2c(-c3cccc(C4(Cc5nncn5C)COC4)c3)n[nH]c12` [Example F1, N-{(1S)-1-[3-(3-{3-[(4-methyl-4H-1,2,4-triazol-3-yl)methyl]oxetan-3-yl}phenyl)-5-(trifluoromethyl)-1H-pyrazolo[3,4-c]pyridin-7-yl]ethyl}cyclobutanamine], for which the Ki in test [1] was 7.3 nM. Moreover, the Kd in test [2] is 0.7 nM; in test [3], 11.2 nM.

Take `Cn1cnnc1CC1(c2cccc(-c3n[nH]c4c(CN5CCCCC5)nc(C(F)(F)F)cc34)c2)COC1` [Example C33, 3-(3-{3-[(4-methyl-4H-1,2,4-triazol-3-yl)methyl]oxetan-3-yl}phenyl)-7-[(piperidin-1-yl)methyl]-5-(trifluoromethyl)-1H-pyrazolo[3,4-c]pyridine]: in test [1], the inhibition constant Ki was 111 nM. Further, the results for the dissociation constant (Kd) in test [2] and in test [3] were 6.8 nM and 107 nM, respectively.

`CC(c1nc(C(F)(F)F)cc2c(-c3cccc(C4(Cc5nncn5C)COC4)c3)n[nH]c12)N1CCC[C@H](C)C1` (single isomer, unassigned) [Example C20]: the inhibitory constant (Ki) in test [1] was 16.9 nM. The values for the Kd in test [2] and in test [3] were 1.2 nM and 11.3 nM, respectively.

Turning to `CC1CN(Cc2nc(C(F)(F)F)cc3c(-c4cccc(C5(Cc6nncn6C)COC5)c4)n[nH]c23)CCC1(F)F` (single isomer, unassigned) [Example C31, 7-{[(3ξ)-4,4-difluoro-3-methylpiperidin-1-yl]methyl}-3-(3-{3-[(4-methyl-4H-1,2,4-triazol-3-yl)methyl]oxetan-3-yl}phenyl)-5-(trifluoromethyl)-1H-pyrazolo[3,4-c]pyridine], the Ki in test [1] stood at 112 nM. The values for the Kd in test [2] and in test [3] were 4.7 nM and 133 nM, respectively.

As to `C[C@@H](NC1CCCC1)c1nc(C(F)(F)F)cc2c(-c3cccc(C4(Cc5nncn5C)COC4)c3)n[nH]c12` (single isomer, unassigned) [Example C15], the inhibitory constant (Ki) in test [1] was determined as 42.1 nM. Besides, the equilibrium dissociation constant (Kd) in test [2] was found to be 5.6 nM; in test [3] it was 33.9 nM.

As to `C[C@H](N[C@@H]1CCC[C@@H]1O)c1nc(C(F)(F)F)cc2c(-c3cccc([C@H](c4nncn4C)C4CCC4)c3)n[nH]c12` (single isomer, unassigned) [Example D15], the inhibition constant Ki in test [1] stood at 1 nM. For the same compound, the Kd was 2.5 nM in test [2] and 6.2 nM in test [3].

Consider `C[C@@H]1CCCN([C@@H](C)c2nc(C(F)(F)F)cc3c(-c4cccc(C5(Cc6nncn6C)COC5)c4)n[nH]c23)C1` (single isomer, unassigned) [Example D13], for which the Ki in test [1] came out at 53.6 nM. In addition, the dissociation constant (Kd) in test [2] was 3.5 nM; in test [3] it was 51.2 nM.

Regarding `CC(c1nc(C(F)(F)F)cc2c(-c3cccc(C4(Cc5nncn5C)COC4)c3)n[nH]c12)N1CCCCC1` (single isomer, unassigned) [Example C21, 3-(3-{3-[(4-methyl-4H-1,2,4-triazol-3-yl)methyl]oxetan-3-yl}phenyl)-7-[(1ξ)-1-(piperidin-1-yl)ethyl]-5-(trifluoromethyl)-1H-pyrazolo[3,4-c]pyridine], the Ki in test [1] was 93.5 nM. Besides, the values for the Kd in test [2] and in test [3] were 13.7 nM and 108 nM, respectively.

Regarding `Cn1cnnc1[C@@H](c1cccc(-c2n[nH]c3cnc(C(F)(F)F)cc23)c1)C1CCC1` [Example A1, 3-{3-[(R)-cyclobutyl(4-methyl-4H-1,2,4-triazol-3-yl)methyl]phenyl}-5-(trifluoromethyl)-1H-pyrazolo[3,4-c]pyridine], the inhibition constant (Ki) in test [1] is 681 nM. Also, the figures for the Kd in test [2] and in test [3] were 34.6 nM and 931 nM, respectively.

For the compound `C[C@H](N[C@H]1CCC(F)(F)C1)c1nc(C(F)(F)F)cc2c(-c3cccc([C@H](c4nncn4C)C4CCC4)c3)n[nH]c12` [Example C8], the inhibition constant Ki in test [1] was 3 nM. Further, the dissociation constant (Kd) is 2.2 nM in test [2] and 5 nM in test [3].

As for `Cn1cnnc1CC1(c2cccc(-c3n[nH]c4cnc(C(F)(F)F)cc34)c2)COC1` [Example B1, 3-(3-(3-((4-methyl-4H-1,2,4-triazol-3-yl)methyl)oxetan-3-yl)phenyl)-5-(trifluoromethyl)-1H-pyrazolo[3,4-c]pyridine], the inhibitory constant (Ki) in test [1] came to 283 nM. Moreover, the Kd in test [2] was 49.5 nM; in test [3], 450 nM.

As to `CC(c1nc(C(F)(F)F)cc2c(-c3cccc(C4(Cc5nncn5C)COC4)c3)n[nH]c12)N1CCOCC1` (single isomer, unassigned) [Example C23, 3-(3-{3-[(4-methyl-4H-1,2,4-triazol-3-yl)methyl]oxetan-3-yl}phenyl)-7-[(1ξ)-1-(morpholin-4-yl)ethyl]-5-(trifluoromethyl)-1H-pyrazolo[3,4-c]pyridine], the Ki in test [1] came to 24.8 nM. The Kd in test [2] is 5.1 nM; in test [3], 29.4 nM.

As for `C[C@@H](N[C@H]1CCOC1)c1nc(C(F)(F)F)cc2c(-c3cccc([C@H](c4nncn4C)C4CCC4)c3)n[nH]c12` (single isomer, unassigned) [Example C3], the Ki in test [1] worked out at 52.1 nM. Also, the dissociation constant (Kd) stood at 5.6 nM in test [2] and 80.7 nM in test [3].

On to `C[C@H](O)CN[C@@H](C)c1nc(C(F)(F)F)cc2c(-c3cccc([C@H](c4nncn4C)C4CCC4)c3)n[nH]c12` (single isomer, unassigned) [Example D19], for which the Ki in test [1] stood at 12.4 nM. The equilibrium dissociation constant (Kd) in test [2] amounted to 1.6 nM; in test [3], 17.2 nM.

For `CC(NC1CNC1)c1nc(C(F)(F)F)cc2c(-c3cccc(C4(Cc5nncn5C)COC4)c3)n[nH]c12` (single isomer, unassigned) [Example C27, N-{(1ξ)-1-[3-(3-{3-[(4-methyl-4H-1,2,4-triazol-3-yl)methyl]oxetan-3-yl}phenyl)-5-(trifluoromethyl)-1H-pyrazolo[3,4-c]pyridin-7-yl]ethyl}azetidin-3-amine], the Ki in test [1] was 76 nM. In addition, the Kd in test [2] came to 8.7 nM; in test [3], 71 nM.

On to `C[C@@H](N[C@H]1C[C@@H](O)C1)c1nc(C(F)(F)F)cc2c(-c3cccc([C@H](c4nncn4C)C4CCC4)c3)n[nH]c12` (single isomer, unassigned) [Example C37], for which the Ki in test [1] is 50.6 nM. In addition, the Kd came out at 3.3 nM in test [2] and 75.5 nM in test [3].

On to `C[C@H](c1nc(C(F)(F)F)cc2c(-c3cccc(C4(Cc5nncn5C)COC4)c3)n[nH]c12)N1CCC(F)(F)C1` (single isomer, unassigned) [Example D6], for which the Ki in test [1] is 21 nM. The Kd in test [2] came to 1.8 nM; in test [3], 31 nM.

For `CC(NC1CCCC1)c1nc(C(F)(F)F)cc2c(-c3cccc([C@H](c4nncn4C)C4CCC4)c3)n[nH]c12` (stereo partly drawn) [Example C14, N-{(1ξ)-1-[3-{3-[(R)-cyclobutyl(4-methyl-4H-1,2,4-triazol-3-yl)methyl]phenyl}-5-(trifluoromethyl)-1H-pyrazolo[3,4-c]cyclopen-7-yl]ethyl}cyclopentanamine], the inhibitory constant (Ki) in test [1] came out at 2.3 nM. Moreover, the dissociation constant Kd was 1.4 nM in test [2] and 4.1 nM in test [3].

Take `C[C@H](N[C@H]1C[C@@H](O)C1)c1nc(C(F)(F)F)cc2c(-c3cccc([C@H](c4nncn4C)C4CCC4)c3)n[nH]c12` (single isomer, unassigned) [Example C36]: in test [1], the Ki worked out at 16.8 nM. The Kd came out at 2 nM in test [2] and 17.9 nM in test [3].

As to `C[C@H](c1nc(C(F)(F)F)cc2c(-c3cccc(C4(Cc5nncn5C)COC4)c3)n[nH]c12)N1CC[C@@H](F)C1` (single isomer, unassigned) [Example D10], the Ki in test [1] turned out to be 25 nM. Also, the dissociation constant Kd in test [2] was found to be 2.8 nM; in test [3] it was 42 nM.

As for `C[C@@H](NC1CCC1)c1nc(C(F)(F)F)cc2c(-c3cccc(C4(Cc5nncn5C)COC4)c3)n[nH]c12` [Example C16], the inhibitory constant (Ki) in test [1] worked out at 49.3 nM. Moreover, the Kd in test [2] was determined as 2 nM; in test [3], 83.4 nM.

On to `C[C@@H](N[C@@H]1CCOC1)c1nc(C(F)(F)F)cc2c(-c3cccc([C@H](c4nncn4C)C4CCC4)c3)n[nH]c12` (single isomer, unassigned) [Example D3], for which the Ki in test [1] is 69.7 nM. Also, the Kd in test [2] was 4 nM; in test [3], 124 nM.

For orientation: Ki means a measure of affinity in units of concentration, obtained from inhibition or displacement. A word on the Kd: it is the concentration at which binding is half-saturated.
